# Results published in patent publication US20060073528A1, “Measurement methods” (priority 2004, published 2006).
# Values joined by “and” are separate entries in the source; they are usually repeats but may differ in a detail not shown here. Equal values may be shown once. Read-outs that look alike come from different tables or passages of the source.
# What was measured:
# [1] = Lyophilized standard stocks reconstituted and analyzed by Hisep RP-HPLC (monomer to dimer conversion); assay type: physicochemical; settings: for Dimer area observed / Monomer area observed: single injections
# Description: All vials contained a total of 15 nmol. Two vials of each standard were reconstituted by adding 150 μL of 50% acetonitrile/0.01% TFA to make a 100 μM stock solution; the remaining vials were reconstituted with 300 μL to make 50 μM stocks. The stocks were further diluted to the working concentration of 5 μm and analyzed. […] The stability of these standards were monitored over time.
# [2] = Sample stability of DM1-related impurities with DS-DM1-deJ591 in the autosampler (Hisep RP-HPLC)
# Description: The sample was analyzed at times t=0 h, 12 h, and 24 h. Sample stability was determined by comparing the area percent (area %) values of the stored sample to that of the initially-prepared solution (t=0 h).
# [3] = 50 μM stock - lyophilized, average per vial
# [4] = 100 μM stock - lyophilized, average per vial
# [5] = 100 μM stock - lyophilized, vials 1 and 2
% remaining area counts relative to t = 0 h (12 h) [%],% remaining area counts relative to t = 0 h (24 h) [%],SMILES,"DM1 monomer to dimer conversion after lyophilization ([1]; 15 nmol vials lyophilized, reconstituted in 50% acetonitrile/0.01% TFA to 100 μM or 50 μM, diluted to 5 μM)","Dimer area observed, Average [1, 3]","Monomer area observed, Average [1, 3]",Dimer area observed ([1]; 50 μM stock - lyophilized),"Monomer area observed ([1]; 50 μM stock - lyophilized, vials 1 and 2)","Dimer area observed, Average [1, 4]","Monomer area observed, Average [1, 4]","Dimer area observed [1, 5]","Monomer area observed [1, 5]","Monomer area observed, Average ([1]; 100 μM stock - untreated)",Monomer area observed ([1]; 100 μM stock - untreated),Average peak area ([2]; t = 0 h),Average peak area ([2]; t = 12 h),Average peak area ([2]; t = 24 h)
,,COc1cc2cc(c1Cl)N(C)C(=O)C[C@H](OC(=O)[C@H](C)N(C)C(=O)CCS)[C@]1(C)O[C@H]1[C@H](C)[C@@H]1C[C@@](O)(NC(=O)O1)[C@H](OC)/C=C/C=C(\C)C2 [DM1 monomer],significant DM1 monomer→dimer conversion,10669,476235 and 412633,10097 and 10809 and 11100,476970 and 475075 and 476660 and 415292 and 411974 and 410632,10086 and 10158,391081 and 417523,10508 and 8635 and 11114 and 10029 and 10666 and 9780,392043 and 391526 and 389675 and 418902 and 418204 and 415463,459843,459407 and 460238 and 459885,223667,217293,214265
,,"COc1cc2cc(c1Cl)N(C)C(=O)CC(OC(=O)C(C)N(C)CC(=O)CCSSC(C)CCC(=O)O)C1(C)OC1C(C)C1CC(O)(NC(=O)O1)C(OC)C=CC=C(C)C2 (stereo not shown) [DM1-TPA adduct, DM1-thiopentanoic acid adduct]",,,,,,,,,,,,246302,245410,245126
,,S=c1cccc[nH]1 [mercaptopyridine],,,,,,,,,,,,15446,15654,15620
96.83,98.20,"CC(CCC(=O)O)SSc1ccccn1 (stereo not shown) [PPA, 4-(2-pyridyldithio) pentanoic acid]",,,,,,,,,,,,15881,15377,15595
